# Assay results: publication PMC9228468, “Relevance of Therapeutic Drug Monitoring of Tyrosine Kinase Inhibitors in Routine Clinical Practice: A Pilot Study” (Pharmaceutics, 2022)
# Experiments:
# [1] = Therapeutic drug monitoring: plasma levels by HPLC-UV, dose-normalized plasma concentrations; format: in vivo, human
# Protocol: (§1) Monitoring was carried out in all cases after at least fifteen days from the start of treatment, when the plasma levels of the drug were considered at steady state. Blood samples were extracted just before ingestion of the tablet/s and at different times after ingestion. The drug was administered in the fasted state and patients were told they could eat food after the second blood sample was drawn. Sampling times, which are defined for each drug in Table 1, were selected based on the optimal sampling theory and pharmacokinetic models previously published in the scientific literature. […] The total blood volume extracted was between 4 and 5 mL for each sample. All samples were centrifuged after extraction at 3500 r.p.m. for 10 min at room temperature and the plasma obtained was frozen at −80 °C until bioanalysis.
# Bioanalysis was carried out using high-performance liquid chromatography (HPLC) coupled with ultraviolet (UV) detection.
# As the stationary phase, an Ultrabase® C18 chromatographic column, 4.6 mm in diameter by 150 mm in length, made of stainless steel and filled with a C18 reversed-phase siliceous substrate with a particle size of 5 µm, was used. A mixture of 40% of 0.02 M ammonium acetate, pH = 7, and 60% acetonitrile: methanol at a ratio of 70:30 (v/v) was used as the mobile phase. The linearity of the technique included a concentration range of 0.05–7.5 µg/mL. The limit of quantification was 0.5 µg/mL. Solid–liquid extraction was used and the analysis time was 9 min.
# The stationary phase used was an Ultrabase® C18 chromatographic column, 4.6 mm in diameter by 150 mm in length, made of stainless steel and filled with a C18 reversed-phase siliceous substrate with a particle size of 5 µm. The mobile phase used was a 40% mixture of 0.02 M ammonium acetate, pH = 7, and 60% acetonitrile: methanol at a ratio of 70:30 (v/v). The linearity of the technique included a concentration range of 0.05–5 µg/mL. The limit of quantification was 0.5 µg/mL. Solid–liquid extraction was used and the analysis time was 10 min.
# The stationary phase used was a Kromasil® C18 chromatographic column, 4.6 mm in diameter by 150 mm in length, made of stainless steel and filled with a C18 reversed-phase siliceous substrate with a particle size of 5 µm. The mobile phase used was a mixture of acetonitrile and 0.02 M ammonium acetate, pH = 3.5, at a ratio of 53:47 (v/v). The linearity of the technique included a concentration range of 0.02–10 µg/mL. The limit of quantification was 0.2 µg/mL. Liquid–liquid extraction was used and the analysis time was 12 min [51].
# The stationary phase used was a Kromasil® C18 chromatographic column, 4.6 mm in diameter by 150 mm in length, made of stainless steel and filled with a C18 reversed-phase siliceous substrate with a particle size of 5 µm. The mobile phase used was a mixture of acetonitrile and 0.02 M ammonium acetate, pH = 3.5, at a ratio of 53:47 (v/v). The linearity of the technique included a concentration range of 0.1–20 µg/mL. The limit of quantification was 0.1 µg/mL. Liquid–liquid extraction was used and the analysis time was 12 min [52].
# The program was compiled with the DIGITAL Visual Fortran version 6.6C program. The graphics were made with the S-Plus 6.1 Professional Edition program for Windows (Insightful, Seattle, WA, USA). A one-compartment pharmacokinetic model with first-order absorption and elimination kinetics was selected to describe erlotinib plasma concentrations, as performed previously by other authors. The fixed-effect parameters estimated by the model were V (volume of distribution, L), CL (plasma clearance, L/h) and Ka (absorption constant). The model included plasma ALT concentration and age as covariates in CL, and weight in V.
# The model was parameterized in terms of D1 (zero-order absorption duration), V and CL, and included the plasma concentration of α 1-acid glycoprotein as a covariate in CL. […]
# [2] = TDM-guided dose adjustment recommendations per monitored cycle; format: in vivo, human
# Protocol: Patients included in this study received drugs at doses previously established by their doctors, according to data sheet indications and clinical judgment. In all cases, drug dose was prescribed before the patient enrolled onto this study and was not affected by this study prior to enrollment.
# as §1
# [3] = Survival analysis (Kaplan-Meier, PFS and OS); format: in vivo, human; settings: real-world cancer patients with TDM
# Protocol: (§2) Patients’ medical records were reviewed with the aim of studying all possible factors related to the patient and the medication that may influence the evolution of the plasma concentrations of TKIs. Sociodemographic and anthropometric, pharmacological treatment, clinical, toxicity and therapeutic drug monitoring data were collected. Treatment response was determined according to the […]. Adverse events were recorded by grade according to the Common Terminology Criteria for Adverse Events version 3.0 (CTCAE v 3.0).
# To assess the relationship between treatments protocols and disease progression or mortality, a Kaplan–Meier survival curve was plotted.
# [4] = Incidence of toxicity (CTCAE grades), first vs last monitored cycle; format: in vivo, human
# Protocol: as §2
# To compare the variation in categorical variables (rash, diarrhea, fatigue, abdominal pain, hypertension, and mucositis) between the first and the last monitored cycle, the non-parametric chi-square test was performed.
# [5] = Groups of patients according to exposure and toxicity; format: in vivo, human
# [6] = cited from earlier work
# [7] = cited from earlier work; remark: listed apart in the source
# [8] = phase II study of 57 NSCLC patients
structure (smiles),measurement,setting,value
"C#Cc1cccc(Nc2ncnc3cc(OCCOC)c(OCCOC)cc23)c1 [Erlotinib, erlotinib]",mean interpatient variability in dose-normalized plasma concentrations (CV),[1]; first monitored cycle,46.2%
same,mean interpatient variability in dose-normalized plasma concentrations (CV),"[1]; last monitored cycle, after TDM and dose adjustments",44%
same,monitored cycles with recommendation to decrease the dose,[2]; concentrations above therapeutic range,3.6%
same,monitored cycles with recommendation to increase the prescribed dose,[2]; concentrations below target therapeutic range,38.2%
same,monitored cycles with recommendation to maintain the current dose,[2]; concentrations within therapeutic range,54.5%
same,monitored cycles with recommendation to suspend/suppress the drug,[2]; in vivo,3.6%
same,"Overall Survival, Median",[3],32 Months
same,"Progression-Free Survival, Median",[3],8 Months
same,Patients with toxicity,[4]; at start of treatment,9 (45.4) n. (%)
same,patients with grade 2 skin rash,[4]; first monitored cycle,13.6%
same,patients with grade 3 mucositis,[4]; first monitored cycle,4.5%
same,patients with grade 3 thrombocytopenia,[4]; first monitored cycle,4.5%
same,Toxicity: Anemia G1,[4]; in vivo,4 (18.1) n. (%)
same,Toxicity: Anemia G2,[4]; in vivo,2 (9.1) n. (%)
same,Toxicity: Diarrhea G2,[4]; in vivo,3 (13.6) n. (%)
same,Toxicity: Fatigue G2,[4]; in vivo,2 (9.1) n. (%)
same,Toxicity: Mucositis G3,[4]; in vivo,1 (4.5) n. (%)
same,Toxicity: Skin rash G1,[4]; in vivo,5 (22.7) n. (%)
same,Toxicity: Skin rash G2,[4]; in vivo,3 (13.6) n. (%)
same,Toxicity: Skin rash G3,[4]; in vivo,3 (13.6) n. (%)
same,"analytical parameters related to toxicity and defined toxicities, first vs last monitored cycle",[4]; in vivo,no significant differences
same,patients who developed toxicity at the start of treatment,[4]; in vivo,45.4%
same,patients with grade 2 skin rash,[4]; last monitored cycle,14.3%
same,patients with grade 3 mucositis,[4]; last monitored cycle,0%
same,patients with grade 3 rash,[4]; last monitored cycle,7.1%
same,patients with grade 3 thrombocytopenia,[4]; last monitored cycle,0%
same,Toxicity: RI G1,[4]; renal insufficiency grade 1 (IR G1 for sorafenib),9 (45.4) n. (%)
same,Toxicity: RI G2,[4]; renal insufficiency grade 2,4 (18.1) n. (%)
same,Toxicity: Thromb. G3,[4]; trombopenia grade 3,1 (4.5) n. (%)
same,"% patients, Group 1","[5]; Drug concentrations above target level: No, Toxicities: No",18.2%
same,"% patients, Group 3","[5]; Drug concentrations above target level: No, Toxicities: Yes",22.7%
same,"% patients, Group 2","[5]; Drug concentrations above target level: Yes, Toxicities: No",13.6%
same,"% patients, Group 4","[5]; Drug concentrations above target level: Yes, Toxicities: Yes",45.5%
same,fraction of a single dose eliminated in the urine,[6],9%
same,patients with plasma concentrations below the target,"[6]; target 500 mg/L, lung cancer patients",11.1%
same,OS,[7]; 26 NSCLC patients,16.9 months
same,PFS,[7]; 26 NSCLC patients,6.3 months
same,OS of patients with grade 1 rash,[7]; [8],8.5 months
same,OS of patients with grade 2 rash,[7]; [8],19.6 months
same,OS of patients without rash,[7]; [8],1.5 months
